Results on 7 compounds are retold here after patent US20240368203A1, “DEGRADATION OF (EGFR) BY CONJUGATION OF EGFR INHIBITORS WITH E3 LIGASE LIGAND AND METHODS OF USE” (BeiGene, Ltd., priority 2022, published 2024).

One experiment concerns the target T1, EGFR-L858R/T790M/C797S (Homo sapiens, UniProt P00533, C797S/L858R/T790M).
T1 construct: expressed in transfected cells; host or cells: H1975-clone #25 (lentiviral over-expression, endogenous EGFR knocked out)
In words: EGFR degradation HTRF assay in H1975-clone #25 cells. The class given is cell-based. The conditions noted are these: 16 h treatment; for DC50: H1975-clone #25 (L858R/T790M/C797S) cells, IC50 (DC50), read-out: DC50(nM) H1975 # 25-LTC; for Dmax: NCI-H1975, H1975-clone #25 (L858R/T790M/C797S) cells, maximum percentage of inhibition (degradation), read-out: Dmax (%) H1975 # 25-LTC. The protocol: (§1) H1975-clone #28(Del19/T790M/C797S) and H1975-clone #25(L858R/T790M/C797S). EGFR-Del19/T790M/C797S and EGFR-L858R/T790M/C797S were stably expressed in H1975 cell lines by lentivirus-mediated over-expression, respectively. The EGFR over-expressed cells then underwent knockout, in which the EGFR targeting sgRNA was designed to only target the endogenous EGFR copies and preserve the exogenous EGFR copies. Followed by knockout, the edited H1975 cells were seeded in 96 well plates at the concentration of […], cultured for about 2 weeks to allow single clones formation. The formed clones were screened by DNA sequencing and whole exon sequencing analysis for the desired edition.
(§2) H1975-clone #28, and H1975-clone #25 were finally confirmed as homozygous Del19/T790M/C797S EGFR, and L858R/T790M/C797S EGFR clones, respectively.
(§3) H1975-#25 and H1975-#28 cells are treated with compounds diluted in 0.2% DMSO cell culture medium on day 2, incubate for 16 h, 37° C., 5% CO2. the final concentration of compounds in all assay is start with 10 uM, 5-fold dilution, total 8 doses were included.
(§4) After 16 h treatment, add HTRF lysis buffer to each well; seal the plate and incubate 1 hour at room temperature on a plate shaker; Once the cells are lysed, 16 μL of cell lysate are transferred to a PE 384-well HTRF detection plate; 4 μL of pre-mixed HTRF antibodies are added to each well; Cover the plate with a plate sealer, spin 1000 rpm for 1 min, Incubate overnight at room temperature; Read on BMG PheraStar with HTRF protocol (337 nm-665 nm-620 nm).
(§5) The inhibition (degradation) percentage of the compound was calculated by the following equation:
(§6) Inhibition percentage of Compound=100−100×(Signal−low control)/(High control−low control),
(§7) The IC50 (DC50) value of a compound can be obtained by fitting the following equation
(§8) Wherein, X and Y are known values, and IC50, Hillslope, Top and Bottom are the parameters obtained by fitting with software. Y is the inhibition percentage (calculated from the equation), X is the concentration of the compound; IC50 is the concentration of the compound when the 50% inhibition is reached. The smaller the IC50 value is, the stronger the inhibitory ability of the compound is. Vice versa, the higher the IC50 value is, the weaker the ability the inhibitory ability of the compound is; Hillslope represents the slope of the fitted curve, generally around 1 *; Bottom represents the minimum value of the curve obtained by data fitting, which is generally 0%±20%; Top represents the maximum value of the curve obtained by data fitting, which is generally 100%±20%. The experimental data were fitted by calculating and analyzing with Dotmatics data analysis software.

The next experiment concerns EGFR-Del19/T790M/C797S. In words: EGFR degradation HTRF assay in H1975-clone #28 cells. The class given is cell-based. The conditions noted are these: H1975-clone #28 (Del19/T790M/C797S) cells, 16 h treatment; for DC50: IC50 (DC50), read-out: DC50(nM) H1975 # 28 DTC; for Dmax (%) H1975 # 28 DTC: maximum percentage of inhibition (degradation). The protocol: as §1, §2, §3, §4, §5, §6, §7, §8

T1 sequence (P00533 25-1210 T790M/C797S/L858R): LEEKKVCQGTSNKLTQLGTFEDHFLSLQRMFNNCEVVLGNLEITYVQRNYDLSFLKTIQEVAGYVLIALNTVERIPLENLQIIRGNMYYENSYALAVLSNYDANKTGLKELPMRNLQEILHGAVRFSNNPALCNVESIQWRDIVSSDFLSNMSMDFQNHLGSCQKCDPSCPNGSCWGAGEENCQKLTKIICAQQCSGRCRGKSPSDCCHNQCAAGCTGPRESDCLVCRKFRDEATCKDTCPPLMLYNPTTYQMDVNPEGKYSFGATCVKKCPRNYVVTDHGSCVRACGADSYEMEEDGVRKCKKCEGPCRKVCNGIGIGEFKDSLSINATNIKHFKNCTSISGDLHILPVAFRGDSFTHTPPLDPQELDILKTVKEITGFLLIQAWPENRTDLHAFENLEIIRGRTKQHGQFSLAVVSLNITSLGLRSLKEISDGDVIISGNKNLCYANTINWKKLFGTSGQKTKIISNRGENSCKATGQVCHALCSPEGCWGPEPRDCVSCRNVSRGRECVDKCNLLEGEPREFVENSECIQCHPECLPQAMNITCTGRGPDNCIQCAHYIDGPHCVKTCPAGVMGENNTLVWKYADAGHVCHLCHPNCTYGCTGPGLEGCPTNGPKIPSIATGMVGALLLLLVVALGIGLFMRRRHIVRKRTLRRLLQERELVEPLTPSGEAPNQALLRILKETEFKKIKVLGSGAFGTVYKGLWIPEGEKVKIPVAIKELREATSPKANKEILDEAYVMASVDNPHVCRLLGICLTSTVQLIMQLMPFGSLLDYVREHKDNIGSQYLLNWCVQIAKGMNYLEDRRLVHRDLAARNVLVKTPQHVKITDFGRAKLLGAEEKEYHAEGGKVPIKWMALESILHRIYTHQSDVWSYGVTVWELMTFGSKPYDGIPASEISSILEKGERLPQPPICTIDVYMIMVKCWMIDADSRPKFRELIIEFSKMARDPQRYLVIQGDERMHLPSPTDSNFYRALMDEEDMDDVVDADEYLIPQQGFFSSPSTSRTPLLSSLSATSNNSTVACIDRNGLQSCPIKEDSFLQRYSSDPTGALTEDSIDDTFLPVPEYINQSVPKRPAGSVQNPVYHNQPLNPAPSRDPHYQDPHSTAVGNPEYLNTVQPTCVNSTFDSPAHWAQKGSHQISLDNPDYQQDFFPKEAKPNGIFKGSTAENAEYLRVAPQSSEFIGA

In the case of `CCc1cc(Nc2ncc(Br)c(Nc3ccc4nc(C)c(F)cc4c3P(C)(C)=O)n2)c(OC)cc1N1CCC(N2CC(N3CCN(c4cc(F)c([C@H]5CCC(=O)NC5=O)c(F)c4)CC3)C2)CC1` (single isomer, unassigned) [Example 16], at EGFR-L858R/T790M/C797S, the 50% degradation concentration (DC50) amounted to 1.1 nM and the maximal degradation (Dmax) worked out at 85%. In the experiment on EGFR-Del19/T790M/C797S, the DC50 turned out to be 2.8 nM and the “Dmax (%) H1975 # 28 DTC” value is given as 88%.
The like results for `CCc1cc(Nc2ncc(Br)c(Nc3ccc4nc(C)c(F)cc4c3P(C)(C)=O)n2)c(OC)cc1N1CCC2(CC1)CCN(C1CCN(c3cccc4c3n(C)c(=O)n4C3CCC(=O)NC3=O)CC1)CC2` (stereo not shown) [Example 51, 3-(4-(4-(9-(4-((5-bromo-4-((5-(dimethylphosphoryl)-3-fluoro-2-methylquinolin-6-yl)amino)pyrimidin-2-yl)amino)-2-ethyl-5-methoxyphenyl)-3,9-diazaspiro[5.5]undecan-3-yl)piperidin-1-yl)-3-methyl-2-oxo-2,3-dihydro-1H-benzo[d]imidazol-1-yl)piperidine-2,6-dione] were, in that order, 3.1 nM, 89%, 2.5 nM and 77%.
Turning to `CCc1cc(Nc2ncc(Br)c(Nc3ccc4nc(C)c(F)cc4c3P(C)(C)=O)n2)c(OC)cc1N1CCC(N2CC3(CN(c4cccc5c4n(C)c(=O)n5C4CCC(=O)NC4=O)C3)C2)CC1` (stereo not shown) [Example 26, 3-(4-(6-(1-(4-((5-bromo-4-((5-(dimethylphosphoryl)-3-fluoro-2-methylquinolin-6-yl)amino)pyrimidin-2-yl)amino)-2-ethyl-5-methoxyphenyl)piperidin-4-yl)-2,6-diazaspiro[3.3]heptan-2-yl)-3-methyl-2-oxo-2,3-dihydro-1H-benzo[d]imidazol-1-yl)piperidine-2,6-dione], at EGFR-L858R/T790M/C797S, the half-maximal degradation concentration (DC50) was determined as 0.7 nM and the Dmax is 80%. Moreover, in the experiment on EGFR-Del19/T790M/C797S, the DC50 stood at 1.4 nM and the “Dmax (%) H1975 # 28 DTC” value was determined as 75%.
The like results for `CCc1ccc2c(P(C)(C)=O)c(Nc3nc(Nc4cc(CC)c(N5CCC(N6CCC(N7CCN(c8cc(F)c([C@H]9CCC(=O)NC9=O)c(F)c8)CC7)CC6)CC5)cc4OC)ncc3Br)ccc2n1` (single isomer, unassigned) [Example 11] were, in that order, 0.9 nM, 94%, 1.8 nM and 88%.
The like results for `COc1cc(N2CCC3(CC2)CCN(C2CCN(c4cc(F)c([C@H]5CCC(=O)NC5=O)c(F)c4)CC2)CC3)c(C)cc1Nc1ncc(Br)c(Nc2ccc3nc(C)ncc3c2P(C)(C)=O)n1` [Example 66, (R)-3-(4-(4-(9-(4-((5-bromo-4-((5-(dimethylphosphoryl)-2-methylquinazolin-6-yl)amino)pyrimidin-2-yl)amino)-5-methoxy-2-methylphenyl)-3,9-diazaspiro[5.5]undecan-3-yl)piperidin-1-yl)-2,6-difluorophenyl)piperidine-2,6-dione] were, in that order, 6.9 nM, 93%, 3.5 nM and 91%.
For `CCc1ncc2c(P(C)(C)=O)c(Nc3nc(Nc4cc(CC)c(N5CCC(N6CCN([C@H]7CCN(c8cc(F)c([C@H]9CCC(=O)NC9=O)c(F)c8)C7)CC6)CC5)cc4OC)ncc3Br)ccc2n1` (single isomer, unassigned) [Example 9], on EGFR-L858R/T790M/C797S, the DC50 was 3.8 nM and the greatest degradation seen (Dmax) turned out to be 86%. For the same compound, in the experiment with EGFR-Del19/T790M/C797S, the 50% degradation concentration (DC50) was found to be 1.3 nM and the “Dmax (%) H1975 # 28 DTC” value is 86%.
As to `CCc1ccc2c(P(C)(C)=O)c(Nc3nc(Nc4cc(CC)c(N5CCC(N6CC7(CN(c8cc(F)c([C@H]9CCC(=O)NC9=O)c(F)c8)C7)C6)CC5)cc4OC)ncc3Br)ccc2n1` (single isomer, unassigned) [Example 27], on EGFR-L858R/T790M/C797S, the DC50 worked out at 2.4 nM and the Dmax was 92%. In the experiment on EGFR-Del19/T790M/C797S, the DC50 turned out to be 1.3 nM and the “Dmax (%) H1975 # 28 DTC” value is listed as 91%.

Broadly, the DC50 is the midpoint of the concentration-degradation curve. In general, Dmax refers to the greatest extent of degradation seen.
